Test results from patent publication US10450549B2, “Aryloxyphenoxypropionate tolerance in turfrgass species and use of AAD1 as a selectable marker” (Dow AgroSciences, LLC, priority 2004, dated 2019).

What was measured:
immature Hi-II embryos = assay: Dose response using immature maize embryos (% embryogenic callus formation); format: cell-based; conditions: up to 30 nM
Method: Dose response studies were initiated using immature embryos treated with Agrobacterium strain LBA4404 lacking a plasmid as described previously. Once treated, embryos were allowed to co-cultivate for 5 days at 25° C. and were then transferred to selection media containing various levels of R-haloxyfop or R-cyhalofop. Embryos were also transferred to media containing 1 mg/L bialaphos and 100 nM imazethapyr as negative controls. Embryos were scored for % embryogenic callus formation after 2 weeks, and then again after 4 weeks.

AAD1 (v1) = biological target: T1, AAD1 (v1) (Sphingobium herbicidovorans, UniProt Q8KSC8); assay: Colorimetric phenol detection assay of AAD1 (v1) activity (purified enzyme or E. coli extract); format: biochemical
T1 construct: made in house; host or cells: E. coli BL-21 Star (DE3), plasmid pDAB3203

AAD2 (v1) = AAD2 (v1) (Bradyrhizobium diazoefficiens, UniProt Q89UC4); assay: Colorimetric phenol assay of AAD2 (v1) E. coli extract / partially purified enzyme; format: biochemical, Bradyrhizobium japonicum; conditions: E. coli extract
[1] = test system: F1 corn containing AAD1 (v3), PAT, and glyphosate resistance genes; assay: Greenhouse injury of F1 corn stacked with AAD1 (v3), PAT and glyphosate resistance (2,4-D DMA, glyphosate, glufosinate and combinations); format: in vivo; conditions: RR/PAT/AAD1
From the text: Homozygous T2 AAD1 (v3)/PAT corn plants were crossed with glyphosate resistant corn plants producing F1 seed containing AAD1 (v3), PAT, and glyphosate resistance genes as described in the previous example.
(§1) F1 seeds were planted individually into 3-inch pots prepared with Metro-Mix® 360 growing medium (Sun Gro Horticulture). […] For the remainder of the study the plants were subirrigated with deionized water.
(§2) The plants were sprayed with rates of 2,4-D DMA, glyphosate, glufosinate, and various combinations of the three. All applications were formulated in 200 mM Hepes buffer (pH 7.5). In spray applications where glufosinate was present the treatment was formulated with the addition of 2% w/v ammonium sulfate.
(§3) At 3 and 14 days after treatment (DAT) plants were evaluated. Plants were assigned injury rating with respect to stunting, chlorosis, and necrosis. Plants assigned an injury rating of 90% or above are considered dead.

wild-type cotton plants = assay: 2,4-D injury of wild-type cotton plant; format: in vivo; conditions: 560 g ae/ha
Method: (§4) Two AAD1 (v3) cotton lines have produced plants according to the above protocol that have been sent to the greenhouse. […] The plants were sprayed at 560 g ae/ha 2,4-DMA formulated in 200 mM Hepes buffer (pH 7.5). The plants were evaluated at 3, 7, and 14 days after treatment. Plants were assigned injury ratings with respect to stunting, chlorosis, and necrosis. Plants assigned an injury rating of 90% or above are considered dead. […] By 7 DAT epinasy continued on the wild-type and the new growth shoots began turning brown. It received a rating of 50% at this time. At 14 DAT the AAD1 (v3) plant was still uninjured, whereas the wild-type was severely stunted, and the new growth areas were brown and shriveled. Thus, the wild-type received a rating of 90% at 14 DAT.

wildtype KY 160 tobacco = assay: Wildtype tobacco response to phenoxy auxin herbicides; format: in vivo, Nicotiana tabacum; conditions: KY160-Wildtype
Method: Each treatment was replicated 1-3 times. Injury ratings were recorded 3 and 14 DAT. […] In several events, some initial auxinic herbicide-related epinasty occurred at doses of 800 g ae/ha or less. […] All events suffered some level temporary auxinic damage 3 DAT when treated with 3200 g ae/ha. Some leaf burning also occurred at this high rate due to the acidity of the spray solution. Future trials at high 2,4-D rates were buffered. […] Some events were inconsistent in response among replicates and were deemed “variable” (Table 27).
(§5) Two AAD1 (v3) tobacco lines (event 721(2)-013.010 and 721(3)-008.005) were chosen from the T0 generation. The T1 seed was stratified, and sown into selection trays much like that of Arabidopsis (Example 6.4), followed by selective removal of untransformed nulls in this segregating population with 280 g ai/ha glufosinate (PAT selection). Survivors were transferred to individual 3-inch pots in the greenhouse. […] Improved consistency of response is anticipated in T1 plants not having come directly from tissue culture. These plants were compared against wildtype KY 160 tobacco. All plants were sprayed with the use of a track sprayer set at 187 L/ha. […] All applications were formulated in 200 mM Hepes buffer (pH 7.5). Each treatment was replicated 4 times. Plants were evaluated at 3 and 14 days after treatment. Plants were assigned injury rating with respect to stunting, chlorosis, and necrosis. The T1 generation is segregating, so some variable response is expected due to difference in zygosity. (Table 28).

[2] = test system: T4 Arabidopsis homozygous for AAD1 (v3) (line AAD1.01.315.076); assay: Foliar-applied auxinic herbicides on homozygous T4 AAD1 (v3) Arabidopsis, % injury 14 DAT; format: in vivo, Arabidopsis thaliana; conditions: AAD1.01.315.076.T4 homozygous AAD1 plants
Method in brief: (§6)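 Homozygous T4 AAD1 (v3) Arabidopsis (line AAD1.01.315.076) and a PAT/Cry1F transformed control were grown in pots and track-sprayed foliarly at 187 L/ha with herbicides formulated in 200 mM Hepes pH 7.5. Injury was rated 14 days after treatment, with 3-4 replicates averaged over two experiments.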

[3] = test system: AAD1 (v3) T1 tobacco (events 721(2)-013.010 and 721(3)-008.005); assay: Segregating AAD1 T1 tobacco response to phenoxy auxin herbicides; format: in vivo, Nicotiana tabacum
From the text: as §5

AAD1 (v3) cotton plant = assay: 2,4-D resistance of AAD1 (v3) cotton plant; format: in vivo; conditions: 560 g ae/ha
Method: as §4

[4] = test system: transformed-control line containing PAT and Cry1F; assay: Foliar-applied auxinic herbicides on control (PAT/Cry1F, wildtype) Arabidopsis, % injury 14 DAT; format: in vivo, Arabidopsis thaliana; conditions: PatCry1f - Control
Method in brief: as §6

Hi II X 5XH751 = assay: Greenhouse injury of non-transformed Hi II X 5XH751 corn (2,4-D DMA, glyphosate, glufosinate and combinations); format: in vivo
Method: as §1, §2, §3

[5] = test system: non-transformed (NT) ‘Shamrock’ Kentucky bluegrass; assay: Haloxyfop-R-methyl on non-transformed Kentucky bluegrass controls; format: in vivo; conditions: seed grown plants
Method: The selected T0 plants were sprayed with haloxyfop-R-methyl (Gallant Super®, DOW AGROSCIENCES, INC.) at rates ranging from 140 to 560 g ae/ha. […] This rate would also control susceptible monocot weed species. Measured amounts were placed individually in 25 mL glass vials and dissolved in a 12 mL volume of 1.0% (v/v) Agri-Dex® Crop Oil Concentrate (COC).
Spray solutions were applied to the plant material with an overhead Mandel™ track sprayer equipped with a 8002E nozzles calibrated to deliver 187 L/ha over an application area of 0.503 square meters (m^2) at a spray height of 18 inches (46 cm) above average plant canopy height. Control plants were sprayed in the same manner with the COC blank.
The treated plants and control plants were placed in a greenhouse and watered by sub-irrigation to prevent wash-off of the test compounds. At various times after application, the condition of the test plants as compared with that of the untreated plants was determined visually and scored on a scale of 0 to 100 percent, where 0 corresponds to no injury or growth inhibition, and 100 corresponds to complete kill. Regenerated, non-transformed (NT) ‘Shamrock’ Kentucky bluegrass plants and/or seed-derived clonally propagated plants served as haloxyfop sensitive controls.

[6] = test system: pDAB3230-transformed Arabidopsis; assay: Glyphosate tolerance of pDAB3230 (AAD1 (v3)+EPSPS) T1 Arabidopsis; format: in vivo, Arabidopsis thaliana; conditions: 7 DAT; EPSPS stacked with AAD1 (v3)

C[C@@H](Oc1ccc(Oc2ncc(C(F)(F)F)cc2Cl)cc1)C(=O)O [R-haloxyfop]
reduction of embryogenic callus formation (immature Hi-II embryos): insufficient reduction of callus formation
activity of AAD1 (v1) E. coli extract on substrate (AAD1 (v1); 0.5 mM substrate, 4 μl extract, 15 min): equivalent to that on (R,S)-haloxyfop
kcat (AAD1 (v1); purified AAD1 (v1)): 0.187 s⁻¹
Km (AAD1 (v1); purified AAD1 (v1), 25 mM MOPS pH 6.8, 25° C., read-out: Km ± SE): 120 ± 54 µM
Vmax ± SE (AAD1 (v1); purified AAD1 (v1), Michaelis-Menten fit): 0.34 ± 0.04 μmol min^−1 mg^−1 AAD1
AAD2 (v1) activity on substrate (AAD2 (v1)): unable to act

CNC.O=C(O)COc1ccc(Cl)cc1Cl [2,4-DMA]
% Injury at 14 DAT Ave ([1]; 560 g ae/ha (1X)): 0%
% Injury at 14 DAT Ave ([1]; 1120 g ae/ha (2X)): 0%
% Injury at 14 DAT Ave ([1]; 2240 g ae/ha (4X)): 0%
injury rating, wild-type cotton (wild-type cotton plants; 3 DAT): 15%
injury rating, wild-type cotton (wild-type cotton plants; 7 DAT): 50%
injury rating, wild-type cotton (wild-type cotton plants; 14 DAT): 90%
Average % Injury of Replicates 14 DAT (wildtype KY 160 tobacco; 560 g ae/ha): 75%
Average % Injury of Replicates 14 DAT (wildtype KY 160 tobacco; 1120 g ae/ha): 80%
Average % Injury of Replicates 14 DAT (wildtype KY 160 tobacco; 2240 g ae/ha): 90%
Average % Injury of Replicates 14 DAT (wildtype KY 160 tobacco; 4480 g ae/ha): 95%
Ave % Injury 14DAT ([2]; 12.5 g ae/ha foliar): 0%
Ave % Injury 14DAT ([2]; 25 g ae/ha foliar): 0%
Ave % Injury 14DAT ([2]; 50 g ae/ha foliar): 0%
Ave % Injury 14DAT ([2]; 100 g ae/ha foliar): 0%
Ave % Injury 14DAT ([2]; 200 g ae/ha foliar): 0%
Ave % Injury 14DAT ([2]; 400 g ae/ha foliar): 0%
Ave % Injury 14DAT ([2]; 800 g ae/ha foliar): 0%
Ave % Injury 14DAT ([2]; 1600 g ae/ha foliar): 0%
Average % Injury of Replicates 14 DAT ([3]; 560 g ae/ha, 721(2)013.010 (medium tolerance in T0 generation)): 5%
Average % Injury of Replicates 14 DAT ([3]; 560 g ae/ha, 721(3)008.005 (high tolerance in T0 generation)): 0%
Average % Injury of Replicates 14 DAT ([3]; 1120 g ae/ha, 721(2)013.010 (medium tolerance in T0 generation)): 5%
Average % Injury of Replicates 14 DAT ([3]; 1120 g ae/ha, 721(3)008.005 (high tolerance in T0 generation)): 2%
Average % Injury of Replicates 14 DAT ([3]; 2240 g ae/ha, 721(2)013.010 (medium tolerance in T0 generation)): 5%
Average % Injury of Replicates 14 DAT ([3]; 2240 g ae/ha, 721(3)008.005 (high tolerance in T0 generation)): 0%
Average % Injury of Replicates 14 DAT ([3]; 4480 g ae/ha, 721(2)013.010 (medium tolerance in T0 generation)): 5%
Average % Injury of Replicates 14 DAT ([3]; 4480 g ae/ha, 721(3)008.005 (high tolerance in T0 generation)): 5%
injury, AAD1 (v3) cotton (AAD1 (v3) cotton plant; 3 DAT): 0%
injury, AAD1 (v3) cotton (AAD1 (v3) cotton plant; 14 DAT): uninjured
Ave % Injury 14DAT ([4]; 12.5 g ae/ha foliar): 67%
Ave % Injury 14DAT ([4]; 25 g ae/ha foliar): 78%
Ave % Injury 14DAT ([4]; 50 g ae/ha foliar): 93%
Ave % Injury 14DAT ([4]; 100 g ae/ha foliar): 100%
Ave % Injury 14DAT ([4]; 200 g ae/ha foliar): 100%
Ave % Injury 14DAT ([4]; 400 g ae/ha foliar): 100%
Ave % Injury 14DAT ([4]; 800 g ae/ha foliar): 100%
Ave % Injury 14DAT ([4]; 1600 g ae/ha foliar): 100%
% Injury at 14 DAT Ave (Hi II X 5XH751; 560 g ae/ha (1X)): 10%
% Injury at 14 DAT Ave (Hi II X 5XH751; 1120 g ae/ha (2X)): 14%
% Injury at 14 DAT Ave (Hi II X 5XH751; 2240 g ae/ha (4X)): 29%

COC(=O)[C@@H](C)Oc1ccc(Oc2ncc(C(F)(F)F)cc2Cl)cc1 [haloxyfop-R-methyl]
GR90 (herbicide rate which produces 90% injury and/or growth inhibition) [5]: approximately 70 g ae/ha

O=C(O)CNCP(=O)(O)O [glyphosate]
level of glyphosate tolerance (I50) vs. wildtype and transformed control lines [6]: > 14 fold
% Injury at 14 DAT Ave ([1]; 840 g ae/ha (1X field rate)): 0%
% Injury at 14 DAT Ave ([1]; 1680 g ae/ha (2X)): 0%
% Injury at 14 DAT Ave ([1]; 3360 g ae/ha (4X)): 0%
% Injury at 14 DAT Ave (Hi II X 5XH751; 840 g ae/ha (1X field rate)): 98%
% Injury at 14 DAT Ave (Hi II X 5XH751; 1680 g ae/ha (2X)): 100%
% Injury at 14 DAT Ave (Hi II X 5XH751; 3360 g ae/ha (4X)): 100%
